Experimental data as given in patent publication US8969327B2, “Substituted androst-4-ene diones” (priority 2010, dated 2015).

Target: T1, Purified P450arom (aromatase) reconstituted with P450-reductase (CPR) (Homo sapiens, UniProt P11511)
T1 sequence (P11511 1-503): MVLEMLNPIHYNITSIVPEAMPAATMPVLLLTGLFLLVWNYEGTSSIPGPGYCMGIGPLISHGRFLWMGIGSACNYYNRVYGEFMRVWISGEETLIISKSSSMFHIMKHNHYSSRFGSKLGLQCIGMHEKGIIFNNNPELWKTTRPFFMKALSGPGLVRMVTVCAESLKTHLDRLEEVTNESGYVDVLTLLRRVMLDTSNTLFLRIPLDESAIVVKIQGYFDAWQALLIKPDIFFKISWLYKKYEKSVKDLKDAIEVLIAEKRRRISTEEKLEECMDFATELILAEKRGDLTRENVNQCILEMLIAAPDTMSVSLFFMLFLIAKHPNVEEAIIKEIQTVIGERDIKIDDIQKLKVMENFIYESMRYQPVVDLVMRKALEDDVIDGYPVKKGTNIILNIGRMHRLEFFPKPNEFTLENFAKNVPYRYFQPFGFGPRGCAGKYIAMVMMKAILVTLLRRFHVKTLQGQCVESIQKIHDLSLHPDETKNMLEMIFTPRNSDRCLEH
Test: Measurement of aromatase activity by 3H-water method
Assay type: biochemical
Conditions: substrate 0.24 μM [1β-3H, 4-14C] androstenedione, 37° C., 20 minutes

[1] = compound concentration 0.1 (μmol)
[2] = compound concentration 1 (μmol)
[3] = compound concentration 10 (μmol)

Row | SMILES | % Inhibition [1] | % Inhibition [2] | % Inhibition [3]
1 | CC/C=C\CO[C@@H]1C[C@@H]2[C@H](CC[C@]3(C)C(=O)CC[C@@H]23)[C@@]2(C)C=CC(=O)C=C12 [HDDG-062, (6R,8R,9S,10R,13S,14S)-10,13-dimethyl-6-((Z)-pent-2-en-1-yloxy)-7,8,9,10,11,12,13,14,15,16-decahydro-3H-cyclopenta[α]phenanthrene-3,17(6H)-dione] | 97% | 96% | 
2 | CO[C@@H]1C[C@@H]2[C@H](CC[C@]3(C)C(=O)CC[C@@H]23)[C@@]2(C)C=CC(=O)C=C12 [HDDG-009] |  |  | 55%
3 | C[C@]12C=CC(=O)C=C1[C@H](OC/C=C/c1ccccc1)C[C@@H]1[C@@H]2CC[C@]2(C)C(=O)CC[C@@H]12 [HDDG-058, (6R,8R,9S,10R,13S,14S)-6-(cinnamyloxy)-10,13-dimethyl-7,8,9,10,11,12,13,14,15,16-decahydro-3H-cyclopenta[α]phenanthrene-3,17(6H)-dione] | 95% | 94% | 
4 | CCCCO[C@@H]1C[C@@H]2[C@H](CC[C@]3(C)C(=O)CC[C@@H]23)[C@@]2(C)CCC(=O)C=C12 [HDDG-052] | 47% | 95% | 87%
5 | C[C@]12CCC(=O)CC1=CC[C@@H]1[C@@H]2CC[C@]2(C)C(=O)CC[C@@H]12 [HDDG-018] |  |  | 41%
6 | C[C@]12CCC(O)=C(OCc3ccccc3)C1=CC[C@@H]1[C@@H]2CC[C@]2(C)C(=O)CC[C@@H]12 [HDDG-050, (8R,9S,10R,13S,14S)-4-(benzyloxy)-3-hydroxy-10,13-dimethyl-7,8,9,10,11,12,13,14,15,16-decahydro-1H-cyclopenta[α]phenanthren-17(2H)-one] | 75% | 96% | 100%
7 | C[C@]12CCC(=O)C=C1[C@H](OCc1ccccc1)C[C@@H]1[C@@H]2CC[C@]2(C)C(=O)CC[C@@H]12 [HDDG-041] | 34% | 95% | 87%
8 | CCC(=O)O[C@@H]1C[C@@H]2[C@H](CC[C@]3(C)C(=O)CC[C@@H]23)[C@@]2(C)C=CC(=O)C=C12 [HDDG-030] | 3% | 0% | 29%
9 | C[C@]12C=CC(=O)C=C1[C@H](OC(=O)Cc1ccccc1)C[C@@H]1[C@@H]2CC[C@]2(C)C(=O)CC[C@@H]12 [HDDG-031] | 0% | 51% | 47%
10 | CC#CCO[C@@H]1C[C@@H]2[C@H](CC[C@]3(C)C(=O)CC[C@@H]23)[C@@]2(C)C=CC(=O)C=C12 [HDDG-029] | 34% | 63% | 95%
11 | C[C@]12C=CC(O)=C(OC(=O)Cc3ccccc3)C1=CC[C@@H]1[C@@H]2CC[C@]2(C)C(=O)CC[C@@H]12 [HDDG-019] | 29% |  | 54%
12 | C[C@]12CCC(=O)C(=[N+]=[N-])C1=CC[C@@H]1[C@@H]2CC[C@]2(C)C(=O)CC[C@@H]12 [HDDG-023] | 24% | 30% | 33%
13 | C[C@]12C=CC(=O)C=C1[C@H](OCC#Cc1cccc3ccccc13)C[C@@H]1[C@@H]2CC[C@]2(C)C(=O)CC[C@@H]12 [HDDG-054, (6R,8R,9S,10R,13S,14S)-10,13-dimethyl-6-((3-(naphthalen-1-yl)prop-2-yn-1-yl)oxy)-7,8,9,10,11,12,13,14,15,16-decahydro-3H-cyclopenta[α]phenanthrene-3,17(6H)-dione] | 94% | 92% | 
14 | CCCCCO[C@@H]1C[C@@H]2[C@H](CC[C@]3(C)C(=O)CC[C@@H]23)[C@@]2(C)C=CC(=O)C=C12 [HDDG-063, (6R,8R,9S,10R,13S,14S)-10,13-dimethyl-6-(pentyloxy)-7,8,9,10,11,12,13,14,15,16-decahydro-3H-cyclopenta[α]phenanthrene-3,17(6H)-dione] | 96% | 97% | 
15 | CO[C@H]1C[C@@H]2[C@H](CC[C@]3(C)C(=O)CC[C@@H]23)[C@@]2(C)C=CC(=O)C=C12 [HDDG-014] |  |  | 42%
16 | N#Cc1ccc(C(c2ccc(C#N)cc2)n2cncn2)cc1 [Letrazole, reference compound] | 76% | 98% | 
17 | CCC(=O)OC1=C(O)C=CC2(C)C1=CCC1C2CCC2(C)C(=O)CCC12 (stereo not drawn) [HDDG-022] | 51% | 86% | 86%
18 | CC(C)(C)O[C@@H]1C[C@@H]2[C@H](CC[C@]3(C)C(=O)CC[C@@H]23)[C@@]2(C)CCC(=O)C=C12 [HDDG-024] | 16% | 78% | 76%
19 | C[C@]12C=CC(O)=C(OCC#Cc3ccccc3)C1=CC[C@@H]1[C@@H]2CC[C@]2(C)C(=O)CC[C@@H]12 [HDDG-038] | 22% | 97% | 91%
20 | CCCCO[C@@H]1C[C@@H]2[C@H](CC[C@]3(C)C(=O)CC[C@@H]23)[C@@]2(C)C=CC(=O)C=C12 [HDDG-044, (6R,8S,9S,10R,13S,14S)-6-butoxy-10,13-dimethyl-7,8,9,10,11,12,13,14,15,16-decahydro-3H-cyclopenta[α]phenanthrene-3,17(6H)-dione] | 73% | 96% | 86%
21 | COC1=C(O)C=C[C@@]2(C)C1=CC[C@@H]1[C@@H]2CC[C@]2(C)C(=O)CC[C@@H]12 [HDDG-011] |  |  | 37%
22 | CCC#CCO[C@@H]1C[C@@H]2[C@H](CC[C@]3(C)C(=O)CC[C@@H]23)[C@@]2(C)CCC(=O)C=C12 [HDDG-042] | 40% | 95% | 99%
23 | C[C@]12C=CC(=O)C=C1[C@H](OCC#Cc1ccccc1)C[C@@H]1[C@@H]2CC[C@]2(C)C(=O)CC[C@@H]12 [HDDG-027] | 27% | 66% | 94%
24 | COc1ccc(COC2=C(O)CC[C@@]3(C)C2=CC[C@@H]2[C@@H]3CC[C@]3(C)C(=O)CC[C@@H]23)cc1 [HDDG-064] | 96% | 96% | 
25 | C[C@]12C=CC(=O)C=C1[C@H](O)C[C@@H]1[C@@H]2CC[C@]2(C)C(=O)CC[C@@H]12 [HDDG-010] |  |  | 55%
26 | COC1=C(O)CC[C@@]2(C)C1=CC[C@@H]1[C@@H]2CC[C@]2(C)C(=O)CC[C@@H]12 [HDDG-020] | 21% | 72% | 61%
27 | C[C@]12C=CC(=O)C=C1C=C[C@@H]1[C@@H]2CC[C@]2(C)C(=O)CC[C@@H]12 [HDDG-003] |  | 67% | 80%
28 | C[C@]12C=CC(=O)C=C1[C@@H](Br)C[C@@H]1[C@@H]2CC[C@]2(C)C(=O)CC[C@@H]12 [HDDG-040] | 54% | 94% | 98%
29 | CCC#CCO[C@@H]1C[C@@H]2[C@H](CC[C@]3(C)C(=O)CC[C@@H]23)[C@@]2(C)C=CC(=O)C=C12 [HDDG-046, (6R,8S,9S,10R,13S,14S)-10,13-dimethyl-6-(pent-2-yn-1-yloxy)-7,8,9,10,11,12,13,14,15,16-decahydro-3H-cyclopenta[α]phenanthrene-3,17(6H)-dione] | 89% | 96% | 99%
